# Measurements from paper PMC10120551, “Novel Glu-based pyrazolo[3,4-d]pyrimidine analogues: design, synthesis and biological evaluation as DHFR and TS dual inhibitors” (Journal of Enzyme Inhibition and Medicinal Chemistry, 2023).
# Read-outs that look alike come from different tables or passages of the source.
# How the values were obtained:
# OVCAR-4 = assay: cells; conditions: Homo sapiens
# NCI-H226 = assay: cells; conditions: Homo sapiens
# [1] = test system: HSF (Normal human skin fibroblast) cells; assay: MTT cytotoxicity assay; format: cell-based; conditions: HSF normal fibroblasts, 48 h, mean ± SD from triplicates
# Experimental: The results hinted that 6i elicited stronger cytotoxicity and higher selectivity for cancer than normal cells.
# The MTT assay was carried out according to the procedure cited earlier. Briefly, in a 96-well plate, either cancer or normal cells were seeded (10^6 cells/cm^2; 100 µL/well) and incubated for 12 h at 37 °C and CO2 (5%), then serial dilutions of compound 6i were added and incubated for 48 h using DMSO control (0.5% V/V). MTT (3-(4,5-dimethylthiazoyl)-2,5-diphenyl-tetrazolium bromide; Cat. No. M-5655) 5 mg/mL was then added. After 4 h incubation, the formed MTT formazan crystals were solubilised by 10% Triton X-100 plus 0.1 N HCl in anhydrous isopropanol. The absorbance was read using a Bioline plate reader at λ570–630 nm[25–29]. The selectivity of 6i towards HSF cells was also determined as follows[30]^,[31]: SI=IC50HSF cells/IC50of cancer cells
# SF-539 = assay: cells; conditions: Homo sapiens
# full NCI 59 cell panel = assay: cells; conditions: Homo sapiens
# IGROV1 = assay: cells; conditions: Homo sapiens
# MCF-7 cells = assay: Apoptosis analysis (annexin-V/PI, flow cytometry); format: cell-based, human; conditions: MCF-7, 10 µM, 24 h; DMSO control 0.29%
# Experimental: Figure 5. Flow cytometric analyses: cell cycle distribution analysis using PI staining method in which MCF-7 cells were treated by 6i (10 µM) and DMSO (negative control; NC) for 48 h; (A) 6i, (B) DMSO, (C) cells percentage in different phases (G0-G1, S, G2/M); apoptotic induction using annexin-V-FITC/PI staining method in which cancer cells were treated by 6i (10 µM) and DMSO (negative control; NC) for 24 h; (D) 6i, (E) DMSO, (F) histogram for induction of apoptosis.
# Again, MCF-7 cells were treated with 6i (10 µM) to assess its effect on cell apoptosis. As shown in Figure 5(D,E), the fraction of cells in early apoptosis were 26.27% and 0.43%, while in late apoptosis, they were 8.90% and 0.29% for compound 6i and DMSO control, respectively. The obtained results hinted that compound 6i could induce apoptotic pathways. However, the ratio of apoptosis inferred that the anti-proliferative effect of compound 6i was largely dependent on apoptosis.
# The MCF-7 cells (10^6 cells/ml) were treated with either 10 µM of 6i or DMSO (NC) for 24 h. After that, the cells were trypsinised, collected, washed, and stained with PE-Annexin-V (BioVision, K101-25) in the presence of PI[67]. The induction of apoptosis was analysed by flow cytometry using BD FACS Calibur[67].
# MDA-MB-231/ATCC = assay: cells; conditions: Homo sapiens
# SN12C = assay: cells; conditions: Homo sapiens
# HOP-62 = assay: cells; conditions: Homo sapiens
# UACC-62 = assay: cells; conditions: Homo sapiens
# SR = conditions: Leukaemia, five-dose 0.01–100 µM
# HL-60(TB) = assay: cells; conditions: Homo sapiens
# SK-MEL-5 = assay: cells; conditions: Homo sapiens
# U251 = assay: cells; conditions: Homo sapiens
# MCF7 = assay: cells; conditions: Homo sapiens
# BT-549 = conditions: BT-549, Breast cancer; five-dose 0.01–100 µM
smiles,measurement,setting,value
CCOC(=O)CC[C@H](NC(=O)c1ccc(NC(=O)Cn2cnc3c(c(C)nn3-c3ccc(Br)cc3)c2=O)cc1)C(=O)OCC [Compound 6i],GI50,OVCAR-4; OVCAR-4,13.4 µM
same,CC50,"OVCAR-4; OVCAR-4, read-out: LC50",76.7 µM
same,GI50,NCI-H226,4.54 µM
same,IC50,[1],48.5 ± 2.43 µM
same,GI50,SF-539; SF-539,14.8 µM
same,CC50,"SF-539; SF-539, read-out: LC50",73.6 µM
same,GI50,"full NCI 59 cell panel; range over HOP-62, A549/ATCC, HOP-92, NCI-H23, NCI-H226, SF-268, HCT-116, OVCAR-8, LOX IMVI, DU-145, PC-3, 786-0, BT-549, MCF7",3.93 to 9.85 µM
same,GI50,full NCI 59 cell panel; range over the residual examined cell lines,10.1 to 71 µM
same,CC50,"full NCI 59 cell panel; read-out: LC50, most of the examined cancer cells",> 100 µM
same,CC50,"full NCI 59 cell panel; read-out: LC50, range over the 23 cell lines listed in b28 as exceptions",47 to 96.1 µM
same,GI50,IGROV1; IGROV-1,23.9 µM
same,CC50,"IGROV1; IGROV-1, read-out: LC50",> 100 µM
same,fraction of cells in late apoptosis,MCF-7 cells,8.90%
same,GI50,MDA-MB-231/ATCC; MDA-MB-231,11.5 µM
same,CC50,"MDA-MB-231/ATCC; MDA-MB-231, read-out: LC50",62.5 µM
same,GI50,SN12C,29.2 µM
same,CC50,SN12C; read-out: LC50,> 100 µM
same,GI50,HOP-62; HOP-62,5.11 µM
same,CC50,"HOP-62; HOP-62, read-out: LC50",57.5 µM
same,GI50,UACC-62; UACC-62,13.3 µM
same,CC50,"UACC-62; UACC-62, read-out: LC50",77.8 µM
same,TGI,SR,>100 µM
same,GI50,HL-60(TB); HL-60,> 100 µM
same,CC50,"HL-60(TB); HL-60, read-out: LC50",> 100 µM
same,GI50,SK-MEL-5; SK-MEL-5,19.4 µM
same,CC50,"SK-MEL-5; SK-MEL-5, read-out: LC50",95.8 µM
same,GI50,U251; U-251,13.2 µM
same,CC50,"U251; U-251, read-out: LC50",> 100 µM
same,GI50,MCF7; MCF7,3.93 µM
same,CC50,"MCF7; MCF7, read-out: LC50",59.4 µM
same,TGI,BT-549,>100 µM
